Source: PubChem BioAssay AID248 (DTP/NCI, 2004)
Values joined by “and” are separate entries in the source; they are usually repeats but may differ in a detail not shown here. Equal entries are not always repeated. Inconclusive results and toxic doses are left out. Cut-off read from the data, not from the text of the source: active = T/C of 150% or more; inactive = T/C below 125%.

System: L1210 leukemia ip in BDF1 mice, survival T/C
Test: NCI In Vivo Anticancer Drug Screen. Data for tumor model L1210 Leukemia (intraperitoneal) in B6D2F1 (BDF1) mice
Settings: endpoint: mean survival time, higher = longer survival
Method in brief: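 Transplanted-tumor mice were given test agent; controls received vehicle only. Survival readings from the two groups were divided (treated over control).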

[1] = dose: 100.0 mg/kg/injection, schedule: Q01DX009 (ip), vehicle: saline
[2] = dose: 100.0 mg/kg/injection, schedule: Q04DX003 (ip), vehicle: saline
[3] = dose: 200.0 mg/kg/injection, schedule: Q01DX009 (ip), vehicle: saline
[4] = dose: 200.0 mg/kg/injection, schedule: Q04DX003 (ip), vehicle: saline
[5] = dose: 400.0 mg/kg/injection, schedule: Q01DX009 (ip), vehicle: saline
[6] = dose: 400.0 mg/kg/injection, schedule: Q04DX003 (ip), vehicle: saline
[7] = dose: 100.0 mg/kg/injection, schedule: Q01DX001 (ip), vehicle: saline
[8] = dose: 200.0 mg/kg/injection, schedule: Q01DX001 (ip), vehicle: saline
[9] = dose: 400.0 mg/kg/injection, schedule: Q01DX001 (ip), vehicle: saline
[10] = dose: 100.0 mg/kg/injection, schedule: Q04DX002 (ip), vehicle: Klucel (hydroxypropylcellulose) (HPC)
[11] = dose: 200.0 mg/kg/injection, schedule: Q04DX002 (ip), vehicle: Klucel (hydroxypropylcellulose) (HPC)
[12] = dose: 400.0 mg/kg/injection, schedule: Q04DX002 (ip), vehicle: Klucel (hydroxypropylcellulose) (HPC)
[13] = dose: 100.0 mg/kg/injection, schedule: Q01DX009 (ip), vehicle: Klucel (hydroxypropylcellulose) (HPC)

Measured: T/C

CC(=O)N(C(C)C)C(C)C
inactive: dose: 0.75 mg/kg/injection, schedule: Q01DX001 (ip), vehicle: saline with Tween-80 100 % of control | dose: 1.5 mg/kg/injection, schedule: Q01DX001 (ip), vehicle: saline with Tween-80 97 % of control | dose: 3.0 mg/kg/injection, schedule: Q01DX001 (ip), vehicle: saline with Tween-80 102 % of control | dose: 3.12 mg/kg/injection, schedule: Q01DX001 (ip), vehicle: saline with Tween-80 98 % of control | dose: 12.5 mg/kg/injection, schedule: Q01DX001 (ip), vehicle: saline with Tween-80 100 % of control

CC(N)C(=O)NCC(=O)NCC(=O)O (configuration not stated)
inactive: [1] 103 % of control | [2] 100 % of control | [3] 96 % of control | [4] 96 % of control | [5] 98 % of control | [6] 94 % of control

S=C(Sc1ccc(Cl)cc1)Sc1ccc(Cl)cc1
inactive: [7] 93 % of control | [8] 93 % of control | [9] 90 % of control

CC1NC(=O)OC1(C)C(C)(C)C (configuration not stated)
inactive: dose: 5.0 mg/kg/injection, schedule: Q04DX003 (ip), vehicle: saline with Tween-80 97 % of control | dose: 10.0 mg/kg/injection, schedule: Q04DX003 (ip), vehicle: saline with Tween-80 100 % of control | dose: 20.0 mg/kg/injection, schedule: Q04DX003 (ip), vehicle: saline with Tween-80 96 % of control

CCCCC1=NCCc2c1cc1c([nH]c3ccccc31)c2C
inactive: [2] 96 % of control | [4] 95 % of control

COc1ccc2c(c1)c(=NCCCCN=c1c3cc(OC)ccc3n(O)c3cc(Cl)ccc13)c1cc(Cl)ccc1n2O
inactive: dose: 12.5 mg/kg/injection, schedule: Q01DX009 (ip), vehicle: other 93 % of control | dose: 25.0 mg/kg/injection, schedule: Q01DX009 (ip), vehicle: other 93 % of control | dose: 50.0 mg/kg/injection, schedule: Q01DX009 (ip), vehicle: other 93 % of control and 101 % of control | dose: 100.0 mg/kg/injection, schedule: Q01DX009 (ip), vehicle: other 101 % of control | dose: 200.0 mg/kg/injection, schedule: Q01DX009 (ip), vehicle: other 101 % of control

C[n+]1ccc(/C=C/c2c(Cl)cccc2Cl)c2ccccc21
inactive: dose: 3.13 mg/kg/injection, schedule: Q04DX003 (ip), vehicle: Klucel (hydroxypropylcellulose) (HPC) 94 % of control | dose: 6.25 mg/kg/injection, schedule: Q04DX003 (ip), vehicle: Klucel (hydroxypropylcellulose) (HPC) 98 % of control | dose: 12.5 mg/kg/injection, schedule: Q04DX003 (ip), vehicle: Klucel (hydroxypropylcellulose) (HPC) 93 % of control

CC1=C(C)CC(C(=O)c2ccccc2)=C(C(=O)c2ccccc2)C1
inactive: dose: 100.0 mg/kg/injection, schedule: Q01DX001 (ip), vehicle: Klucel (hydroxypropylcellulose) (HPC) 95 % of control | dose: 200.0 mg/kg/injection, schedule: Q01DX001 (ip), vehicle: Klucel (hydroxypropylcellulose) (HPC) 90 % of control | dose: 400.0 mg/kg/injection, schedule: Q01DX001 (ip), vehicle: Klucel (hydroxypropylcellulose) (HPC) 90 % of control

O=C(Nc1ccc(S(=O)(=O)Nc2ccc(N=Nc3ccc(S(=O)(=O)Nc4nccs4)cc3)cc2)cc1)C(N1CC1)(N1CC1)N1CC1
inactive: dose: 15.0 mg/kg/injection, schedule: Q01DX001 (ip), vehicle: saline 105 % of control | dose: 30.0 mg/kg/injection, schedule: Q01DX001 (ip), vehicle: saline 105 % of control

O=C(CCC(=O)OCCBr)OCCBr
inactive: dose: 100.0 mg/kg/injection, schedule: Q04DX003 (ip), vehicle: Klucel (hydroxypropylcellulose) (HPC) 110 % of control | dose: 200.0 mg/kg/injection, schedule: Q04DX003 (ip), vehicle: Klucel (hydroxypropylcellulose) (HPC) 102 % of control

c1ccc2c(c1)CCc1ccccc1CNC2
inactive: dose: 25.0 mg/kg/injection, schedule: Q04DX002 (ip), vehicle: Klucel (hydroxypropylcellulose) (HPC) 111 % of control | dose: 50.0 mg/kg/injection, schedule: Q04DX002 (ip), vehicle: Klucel (hydroxypropylcellulose) (HPC) 106 % of control

N#CCN(CC#N)CC#N
inactive: dose: 3.13 mg/kg/injection, schedule: Q04DX003 (ip), vehicle: saline with Tween-80 102 % of control | dose: 6.25 mg/kg/injection, schedule: Q04DX003 (ip), vehicle: saline with Tween-80 111 % of control

CC1(C)CC(N)CC(C)(C)N1
inactive: dose: 50.0 mg/kg/injection, schedule: Q01DX001 (ip), vehicle: carboxymethylcellulose (CMC) 107 % of control | dose: 100.0 mg/kg/injection, schedule: Q01DX001 (ip), vehicle: carboxymethylcellulose (CMC) 103 % of control

CC(=O)OC1C(OS(=O)(=O)c2ccc(C)cc2)C(COC(=O)c2ccccc2)OC1n1cnc2c(NC(=O)c3ccccc3)ncnc21 (configuration not stated)
inactive: dose: 100.0 mg/kg/injection, schedule: Q01DX005 (ip), vehicle: saline 97 % of control | dose: 200.0 mg/kg/injection, schedule: Q01DX005 (ip), vehicle: saline 90 % of control

N=c1c(C(=O)O)cccn1O
inactive: dose: 87.5 mg/kg/injection, schedule: Q01DX009 (ip), vehicle: Klucel (hydroxypropylcellulose) (HPC) 105 % of control | dose: 175.0 mg/kg/injection, schedule: Q01DX009 (ip), vehicle: Klucel (hydroxypropylcellulose) (HPC) 94 % of control | dose: 350.0 mg/kg/injection, schedule: Q01DX009 (ip), vehicle: Klucel (hydroxypropylcellulose) (HPC) 95 % of control

CCN(C(=O)c1cccc(C(=O)N(CC)c2cccc(C)c2)c1)c1cccc(C)c1
inactive: [10] 94 % of control | [11] 91 % of control | [12] 91 % of control

COC/C(C)=C/Cl
inactive: dose: 100.0 mg/kg/injection, schedule: Q01DX001 (ip), vehicle: acetone 102 % of control | dose: 200.0 mg/kg/injection, schedule: Q01DX001 (ip), vehicle: acetone 100 % of control | dose: 400.0 mg/kg/injection, schedule: Q01DX001 (ip), vehicle: acetone 96 % of control

CSCC(O)CSC
inactive: dose: 100.0 mg/kg/injection, schedule: Q04DX002 (ip), vehicle: saline with Tween-80 90 % of control | dose: 200.0 mg/kg/injection, schedule: Q04DX002 (ip), vehicle: saline with Tween-80 93 % of control | dose: 400.0 mg/kg/injection, schedule: Q04DX002 (ip), vehicle: saline with Tween-80 87 % of control

CCCCNC(=O)NNC(=O)OCC
inactive: [2] 100 % of control | [4] 100 % of control | [6] 100 % of control

COC1OC1(C)C (configuration not stated)
inactive: [1] 102 % of control | [2] 104 % of control | [3] 103 % of control | [4] 102 % of control | [5] 100 % of control | [6] 98 % of control

Cc1cc(C(=O)O)c2cc(Br)ccc2n1
inactive: dose: 25.0 mg/kg/injection, schedule: Q01DX009 (ip), vehicle: Klucel (hydroxypropylcellulose) (HPC) 100 % of control | dose: 50.0 mg/kg/injection, schedule: Q01DX009 (ip), vehicle: Klucel (hydroxypropylcellulose) (HPC) 98 % of control | [13] 96 % of control

C=CCOc1c(Cl)cc(Cl)cc1Cl
inactive: [7] 100 % of control | [8] 100 % of control | [9] 100 % of control

Nc1ncns1
inactive: dose: 66.0 mg/kg/injection, schedule: Q04DX003 (ip), vehicle: saline 104 % of control | [2] 117 % of control | dose: 150.0 mg/kg/injection, schedule: Q04DX003 (ip), vehicle: saline 120 % of control

Cc1ccc(-c2ccccc2)cc1C(=O)O
inactive: [10] 94 % of control | [11] 90 % of control | [12] 101 % of control

O=C1NC(=O)C2(N1)c1ccccc1-c1ccccc12
inactive: [13] 95 % of control | dose: 200.0 mg/kg/injection, schedule: Q01DX009 (ip), vehicle: Klucel (hydroxypropylcellulose) (HPC) 90 % of control | dose: 400.0 mg/kg/injection, schedule: Q01DX009 (ip), vehicle: Klucel (hydroxypropylcellulose) (HPC) 95 % of control

CCCCOC(=O)c1ccc(NC(=O)C(Cl)Cl)cc1
inactive: [2] 99 % of control | [4] 89 % of control | [6] 89 % of control

CC1(C)CCCC(Cl)(C(Cl)c2ccccc2)C1=O (configuration not stated)
inactive: [1] 90 % of control | [2] 104 % of control | [3] 95 % of control | [4] 102 % of control | [5] 91 % of control | [6] 104 % of control
